The values that follow come from ChEMBL document CHEMBL5442219.

Conditions in all cases: Compound concentration 10 µM
Test [1] addresses T1, Muscarinic acetylcholine receptor M4 (Homo sapiens) (UniProt P08173).
T1 sequence (whole entry): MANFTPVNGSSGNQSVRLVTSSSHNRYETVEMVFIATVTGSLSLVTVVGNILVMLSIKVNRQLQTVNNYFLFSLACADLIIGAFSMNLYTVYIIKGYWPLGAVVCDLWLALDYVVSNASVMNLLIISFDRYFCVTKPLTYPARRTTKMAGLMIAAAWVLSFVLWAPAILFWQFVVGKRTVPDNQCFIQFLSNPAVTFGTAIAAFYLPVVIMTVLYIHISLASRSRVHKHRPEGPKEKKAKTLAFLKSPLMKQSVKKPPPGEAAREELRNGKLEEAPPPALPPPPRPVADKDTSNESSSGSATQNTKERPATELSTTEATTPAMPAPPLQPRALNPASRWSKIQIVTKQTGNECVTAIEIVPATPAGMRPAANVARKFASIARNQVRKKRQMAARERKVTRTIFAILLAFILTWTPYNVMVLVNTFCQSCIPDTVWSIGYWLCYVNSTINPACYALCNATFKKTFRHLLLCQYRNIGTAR
Description: PDSP Primary Binding target: CHRM4 - Compounds are tested at 10 uM concentration, plate are incubated at room temperature in the dark for 90 minutes. Reaction are stopped by vacuum filtration onto 0.3% polyethyleneimine soaked filter mats using Filtermate harvester. Scintilation cocktail is then melted onto microwave-dried filters on a hot plate and the radio activity is counted in Microbia counter.

In test [2] the target is Sigma non-opioid intracellular receptor 1 (Homo sapiens) (UniProt Q99720).
Chain of Sigma non-opioid intracellular receptor 1 (Homo sapiens) (Q99720 whole entry): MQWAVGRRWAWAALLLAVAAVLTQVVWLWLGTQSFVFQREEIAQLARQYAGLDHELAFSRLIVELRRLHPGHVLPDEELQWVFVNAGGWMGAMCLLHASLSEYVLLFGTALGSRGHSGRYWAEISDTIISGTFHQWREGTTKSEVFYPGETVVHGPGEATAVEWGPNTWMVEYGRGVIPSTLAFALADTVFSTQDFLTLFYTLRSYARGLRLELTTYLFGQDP
Description: PDSP Primary Binding target: SIGMAR1 - Compounds are tested at 10 uM concentration, plate are incubated at room temperature in the dark for 90 minutes. Reaction are stopped by vacuum filtration onto 0.3% polyethyleneimine soaked filter mats using Filtermate harvester. Scintilation cocktail is then melted onto microwave-dried filters on a hot plate and the radio activity is counted in Microbia counter.
The target in test [3] is Delta-type opioid receptor (Homo sapiens) (UniProt P41143).
Chain of Delta-type opioid receptor (Homo sapiens) (P41143 whole entry): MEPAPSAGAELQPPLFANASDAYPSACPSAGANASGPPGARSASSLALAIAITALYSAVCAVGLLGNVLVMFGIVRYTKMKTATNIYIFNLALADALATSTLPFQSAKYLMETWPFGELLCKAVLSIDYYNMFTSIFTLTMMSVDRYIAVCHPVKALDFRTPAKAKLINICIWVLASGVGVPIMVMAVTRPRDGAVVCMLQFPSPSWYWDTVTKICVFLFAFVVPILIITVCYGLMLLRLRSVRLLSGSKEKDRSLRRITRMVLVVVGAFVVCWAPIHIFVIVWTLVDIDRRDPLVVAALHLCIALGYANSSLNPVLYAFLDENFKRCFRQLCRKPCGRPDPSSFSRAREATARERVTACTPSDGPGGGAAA
Description: PDSP Primary Binding target: OPRD1 - Compounds are tested at 10 uM concentration, plate are incubated at room temperature in the dark for 90 minutes. Reaction are stopped by vacuum filtration onto 0.3% polyethyleneimine soaked filter mats using Filtermate harvester. Scintilation cocktail is then melted onto microwave-dried filters on a hot plate and the radio activity is counted in Microbia counter.
The target of test [4] is D(3) dopamine receptor (Homo sapiens) (UniProt P35462).
Chain of D(3) dopamine receptor (Homo sapiens) (P35462 whole entry): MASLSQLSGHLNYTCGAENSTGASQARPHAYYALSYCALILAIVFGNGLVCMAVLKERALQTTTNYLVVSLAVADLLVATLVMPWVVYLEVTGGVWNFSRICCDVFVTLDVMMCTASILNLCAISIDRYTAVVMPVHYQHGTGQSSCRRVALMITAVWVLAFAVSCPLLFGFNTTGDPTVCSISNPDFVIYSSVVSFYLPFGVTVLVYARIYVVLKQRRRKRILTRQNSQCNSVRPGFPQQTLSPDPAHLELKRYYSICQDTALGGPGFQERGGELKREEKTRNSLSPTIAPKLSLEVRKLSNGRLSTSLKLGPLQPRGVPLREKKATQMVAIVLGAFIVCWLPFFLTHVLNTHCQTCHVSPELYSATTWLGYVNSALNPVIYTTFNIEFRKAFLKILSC
Description: PDSP Primary Binding target: DRD3 - Compounds are tested at 10 uM concentration, plate are incubated at room temperature in the dark for 90 minutes. Reaction are stopped by vacuum filtration onto 0.3% polyethyleneimine soaked filter mats using Filtermate harvester. Scintilation cocktail is then melted onto microwave-dried filters on a hot plate and the radio activity is counted in Microbia counter.
The target of test [5] is D(1B) dopamine receptor (Homo sapiens) (UniProt P21918).
Chain of D(1B) dopamine receptor (Homo sapiens) (P21918 whole entry): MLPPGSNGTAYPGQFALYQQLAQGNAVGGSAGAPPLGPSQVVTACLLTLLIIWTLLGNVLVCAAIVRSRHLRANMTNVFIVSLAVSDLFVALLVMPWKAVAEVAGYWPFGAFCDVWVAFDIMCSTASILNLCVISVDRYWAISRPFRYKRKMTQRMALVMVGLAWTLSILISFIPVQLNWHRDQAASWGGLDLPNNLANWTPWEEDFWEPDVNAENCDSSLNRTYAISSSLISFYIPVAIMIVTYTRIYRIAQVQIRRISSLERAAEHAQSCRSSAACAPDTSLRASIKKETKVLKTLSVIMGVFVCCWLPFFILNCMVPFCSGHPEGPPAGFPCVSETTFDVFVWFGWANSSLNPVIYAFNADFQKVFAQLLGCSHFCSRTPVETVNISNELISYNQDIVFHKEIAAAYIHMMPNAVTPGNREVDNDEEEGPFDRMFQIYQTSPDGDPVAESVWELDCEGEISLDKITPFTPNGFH
Description: PDSP Primary Binding target: DRD5 - Compounds are tested at 10 uM concentration, plate are incubated at room temperature in the dark for 90 minutes. Reaction are stopped by vacuum filtration onto 0.3% polyethyleneimine soaked filter mats using Filtermate harvester. Scintilation cocktail is then melted onto microwave-dried filters on a hot plate and the radio activity is counted in Microbia counter.
Test [6] concerns the target Kappa-type opioid receptor (Homo sapiens) (UniProt P41145).
Description: PDSP Primary Binding target: OPRK1 - Compounds are tested at 10 uM concentration, plate are incubated at room temperature in the dark for 90 minutes. Reaction are stopped by vacuum filtration onto 0.3% polyethyleneimine soaked filter mats using Filtermate harvester. Scintilation cocktail is then melted onto microwave-dried filters on a hot plate and the radio activity is counted in Microbia counter.
Test [7] addresses T2, Alpha-2A adrenergic receptor (Homo sapiens) (UniProt P08913).
T2 sequence (whole entry): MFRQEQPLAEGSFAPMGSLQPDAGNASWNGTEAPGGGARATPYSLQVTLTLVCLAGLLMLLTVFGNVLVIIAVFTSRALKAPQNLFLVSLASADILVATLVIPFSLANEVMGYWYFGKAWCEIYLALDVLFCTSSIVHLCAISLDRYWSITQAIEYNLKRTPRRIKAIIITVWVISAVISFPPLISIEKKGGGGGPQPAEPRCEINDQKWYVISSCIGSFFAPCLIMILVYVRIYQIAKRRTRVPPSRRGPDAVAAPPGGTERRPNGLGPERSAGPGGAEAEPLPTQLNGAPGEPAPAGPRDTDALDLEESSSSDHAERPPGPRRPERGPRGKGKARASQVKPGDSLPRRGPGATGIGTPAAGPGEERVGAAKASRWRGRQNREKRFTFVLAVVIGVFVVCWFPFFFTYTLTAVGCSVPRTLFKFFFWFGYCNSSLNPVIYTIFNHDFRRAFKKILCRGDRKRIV
Description: PDSP Primary Binding target: ADRA2A - Compounds are tested at 10 uM concentration, plate are incubated at room temperature in the dark for 90 minutes. Reaction are stopped by vacuum filtration onto 0.3% polyethyleneimine soaked filter mats using Filtermate harvester. Scintilation cocktail is then melted onto microwave-dried filters on a hot plate and the radio activity is counted in Microbia counter.

Test [8] has as its target 5-hydroxytryptamine receptor 6 (Homo sapiens) (UniProt P50406).
Description: PDSP Primary Binding target: HTR6 - Compounds are tested at 10 uM concentration, plate are incubated at room temperature in the dark for 90 minutes. Reaction are stopped by vacuum filtration onto 0.3% polyethyleneimine soaked filter mats using Filtermate harvester. Scintilation cocktail is then melted onto microwave-dried filters on a hot plate and the radio activity is counted in Microbia counter.
The target in test [9] is 5-hydroxytryptamine receptor 7 (Homo sapiens) (UniProt P34969).
Chain of 5-hydroxytryptamine receptor 7 (Homo sapiens) (P34969 whole entry): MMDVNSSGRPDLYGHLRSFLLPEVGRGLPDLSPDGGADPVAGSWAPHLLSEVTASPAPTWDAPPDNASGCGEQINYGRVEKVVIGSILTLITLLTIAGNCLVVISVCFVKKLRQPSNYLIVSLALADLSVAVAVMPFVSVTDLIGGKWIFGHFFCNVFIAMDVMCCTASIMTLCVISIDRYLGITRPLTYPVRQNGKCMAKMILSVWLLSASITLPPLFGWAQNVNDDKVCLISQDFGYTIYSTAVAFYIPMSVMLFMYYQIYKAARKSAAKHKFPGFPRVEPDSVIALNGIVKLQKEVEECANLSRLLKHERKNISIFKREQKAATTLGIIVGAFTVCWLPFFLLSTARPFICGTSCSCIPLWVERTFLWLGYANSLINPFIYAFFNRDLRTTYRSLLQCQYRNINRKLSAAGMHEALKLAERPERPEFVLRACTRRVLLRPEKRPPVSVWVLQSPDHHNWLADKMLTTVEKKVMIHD
Description: PDSP Primary Binding target: HTR7 - Compounds are tested at 10 uM concentration, plate are incubated at room temperature in the dark for 90 minutes. Reaction are stopped by vacuum filtration onto 0.3% polyethyleneimine soaked filter mats using Filtermate harvester. Scintilation cocktail is then melted onto microwave-dried filters on a hot plate and the radio activity is counted in Microbia counter.
In test [10] the target is Beta-2 adrenergic receptor (Homo sapiens) (UniProt P07550).
Chain of Beta-2 adrenergic receptor (Homo sapiens) (P07550 whole entry, looked up): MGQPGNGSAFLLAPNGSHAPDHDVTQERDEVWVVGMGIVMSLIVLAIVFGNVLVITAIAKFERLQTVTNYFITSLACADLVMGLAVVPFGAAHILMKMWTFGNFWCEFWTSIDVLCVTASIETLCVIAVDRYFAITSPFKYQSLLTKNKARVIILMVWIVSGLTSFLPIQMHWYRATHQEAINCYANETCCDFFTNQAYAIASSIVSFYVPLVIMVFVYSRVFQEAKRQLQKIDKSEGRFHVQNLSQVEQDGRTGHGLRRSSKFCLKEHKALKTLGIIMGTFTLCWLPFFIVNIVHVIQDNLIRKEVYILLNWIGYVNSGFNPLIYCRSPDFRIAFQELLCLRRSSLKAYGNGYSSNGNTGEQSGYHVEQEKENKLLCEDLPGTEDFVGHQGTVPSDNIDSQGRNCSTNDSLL
Description: PDSP Primary Binding target: ADRB2 - Compounds are tested at 10 uM concentration, plate are incubated at room temperature in the dark for 90 minutes. Reaction are stopped by vacuum filtration onto 0.3% polyethyleneimine soaked filter mats using Filtermate harvester. Scintilation cocktail is then melted onto microwave-dried filters on a hot plate and the radio activity is counted in Microbia counter.
Test [11] concerns the target 5-hydroxytryptamine receptor 2B (Homo sapiens) (UniProt P41595).
Description: PDSP Primary Binding target: HTR2B - Compounds are tested at 10 uM concentration, plate are incubated at room temperature in the dark for 90 minutes. Reaction are stopped by vacuum filtration onto 0.3% polyethyleneimine soaked filter mats using Filtermate harvester. Scintilation cocktail is then melted onto microwave-dried filters on a hot plate and the radio activity is counted in Microbia counter.
Test [12] has as its target T3, Muscarinic acetylcholine receptor M1 (Homo sapiens) (UniProt P11229).
T3 sequence (whole entry): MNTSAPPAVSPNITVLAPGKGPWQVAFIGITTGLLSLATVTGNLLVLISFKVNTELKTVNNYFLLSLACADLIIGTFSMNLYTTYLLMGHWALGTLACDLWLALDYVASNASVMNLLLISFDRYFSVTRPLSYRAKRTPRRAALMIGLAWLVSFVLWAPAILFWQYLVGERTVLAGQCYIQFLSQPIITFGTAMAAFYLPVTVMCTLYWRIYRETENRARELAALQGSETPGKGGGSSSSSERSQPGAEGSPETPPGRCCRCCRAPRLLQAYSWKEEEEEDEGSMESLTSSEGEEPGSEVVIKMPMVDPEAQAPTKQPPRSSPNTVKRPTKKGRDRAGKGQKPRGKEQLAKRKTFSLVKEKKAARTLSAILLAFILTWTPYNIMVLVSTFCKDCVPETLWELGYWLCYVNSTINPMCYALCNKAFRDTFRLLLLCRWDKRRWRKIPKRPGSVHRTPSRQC
Description: PDSP Primary Binding target: CHRM1 - Compounds are tested at 10 uM concentration, plate are incubated at room temperature in the dark for 90 minutes. Reaction are stopped by vacuum filtration onto 0.3% polyethyleneimine soaked filter mats using Filtermate harvester. Scintilation cocktail is then melted onto microwave-dried filters on a hot plate and the radio activity is counted in Microbia counter.

The target of test [13] is T4, Muscarinic acetylcholine receptor M2 (Homo sapiens) (UniProt P08172).
T4 sequence (whole entry): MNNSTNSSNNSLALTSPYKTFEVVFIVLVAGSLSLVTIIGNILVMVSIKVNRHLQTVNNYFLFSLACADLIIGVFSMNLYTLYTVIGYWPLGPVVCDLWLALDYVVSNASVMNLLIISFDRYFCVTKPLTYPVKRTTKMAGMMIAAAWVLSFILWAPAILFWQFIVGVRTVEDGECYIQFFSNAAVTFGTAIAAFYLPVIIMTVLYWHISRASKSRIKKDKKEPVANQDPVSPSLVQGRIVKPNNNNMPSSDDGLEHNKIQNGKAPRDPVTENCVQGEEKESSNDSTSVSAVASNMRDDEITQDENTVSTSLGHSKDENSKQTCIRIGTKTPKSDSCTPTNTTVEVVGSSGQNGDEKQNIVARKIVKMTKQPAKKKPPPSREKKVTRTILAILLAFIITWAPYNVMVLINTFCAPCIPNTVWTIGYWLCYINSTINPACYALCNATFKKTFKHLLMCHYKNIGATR
Description: PDSP Primary Binding target: CHRM2 - Compounds are tested at 10 uM concentration, plate are incubated at room temperature in the dark for 90 minutes. Reaction are stopped by vacuum filtration onto 0.3% polyethyleneimine soaked filter mats using Filtermate harvester. Scintilation cocktail is then melted onto microwave-dried filters on a hot plate and the radio activity is counted in Microbia counter.

For test [14], the target named is T5, 5-hydroxytryptamine receptor 2C (Homo sapiens) (UniProt P28335).
T5 sequence (whole entry): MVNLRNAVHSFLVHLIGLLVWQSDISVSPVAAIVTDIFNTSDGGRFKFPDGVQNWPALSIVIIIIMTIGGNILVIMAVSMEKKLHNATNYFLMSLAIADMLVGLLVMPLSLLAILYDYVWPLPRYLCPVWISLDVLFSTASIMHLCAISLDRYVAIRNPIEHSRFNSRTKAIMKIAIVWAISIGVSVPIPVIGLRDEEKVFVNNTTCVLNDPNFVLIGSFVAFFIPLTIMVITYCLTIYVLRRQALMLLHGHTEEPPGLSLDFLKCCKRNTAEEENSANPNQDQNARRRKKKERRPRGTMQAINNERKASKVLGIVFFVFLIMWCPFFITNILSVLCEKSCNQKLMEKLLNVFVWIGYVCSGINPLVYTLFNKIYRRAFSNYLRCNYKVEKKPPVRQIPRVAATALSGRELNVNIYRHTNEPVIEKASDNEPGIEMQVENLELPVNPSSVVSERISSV
Description: PDSP Primary Binding target: HTR2C - Compounds are tested at 10 uM concentration, plate are incubated at room temperature in the dark for 90 minutes. Reaction are stopped by vacuum filtration onto 0.3% polyethyleneimine soaked filter mats using Filtermate harvester. Scintilation cocktail is then melted onto microwave-dried filters on a hot plate and the radio activity is counted in Microbia counter.

Chain of 5-hydroxytryptamine receptor 6 (Homo sapiens) (P50406 whole entry): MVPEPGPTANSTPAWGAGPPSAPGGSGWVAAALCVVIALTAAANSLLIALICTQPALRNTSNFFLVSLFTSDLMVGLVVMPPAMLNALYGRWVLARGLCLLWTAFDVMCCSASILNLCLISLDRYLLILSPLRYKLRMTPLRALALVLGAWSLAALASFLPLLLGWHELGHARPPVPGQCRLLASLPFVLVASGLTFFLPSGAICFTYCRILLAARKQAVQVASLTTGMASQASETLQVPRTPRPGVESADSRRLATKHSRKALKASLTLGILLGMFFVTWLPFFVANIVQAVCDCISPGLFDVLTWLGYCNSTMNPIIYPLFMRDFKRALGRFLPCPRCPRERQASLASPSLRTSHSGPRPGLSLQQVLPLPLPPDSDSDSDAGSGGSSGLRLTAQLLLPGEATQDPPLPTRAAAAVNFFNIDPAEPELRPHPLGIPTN
Chain of 5-hydroxytryptamine receptor 2B (Homo sapiens) (P41595 whole entry): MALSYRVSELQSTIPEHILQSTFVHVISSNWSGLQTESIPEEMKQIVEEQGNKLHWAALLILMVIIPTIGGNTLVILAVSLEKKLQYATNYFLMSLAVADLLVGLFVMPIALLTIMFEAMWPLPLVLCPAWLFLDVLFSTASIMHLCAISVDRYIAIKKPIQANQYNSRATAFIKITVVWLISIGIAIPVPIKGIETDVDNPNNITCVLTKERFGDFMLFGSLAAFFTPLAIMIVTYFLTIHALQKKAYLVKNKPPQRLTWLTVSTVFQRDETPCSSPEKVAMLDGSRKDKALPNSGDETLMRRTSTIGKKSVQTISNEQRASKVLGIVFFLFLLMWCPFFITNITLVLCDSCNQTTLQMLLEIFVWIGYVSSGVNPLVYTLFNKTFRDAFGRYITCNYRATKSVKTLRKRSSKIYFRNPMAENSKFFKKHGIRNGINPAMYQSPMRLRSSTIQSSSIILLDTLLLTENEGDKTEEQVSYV
Chain of Kappa-type opioid receptor (Homo sapiens) (P41145 whole entry): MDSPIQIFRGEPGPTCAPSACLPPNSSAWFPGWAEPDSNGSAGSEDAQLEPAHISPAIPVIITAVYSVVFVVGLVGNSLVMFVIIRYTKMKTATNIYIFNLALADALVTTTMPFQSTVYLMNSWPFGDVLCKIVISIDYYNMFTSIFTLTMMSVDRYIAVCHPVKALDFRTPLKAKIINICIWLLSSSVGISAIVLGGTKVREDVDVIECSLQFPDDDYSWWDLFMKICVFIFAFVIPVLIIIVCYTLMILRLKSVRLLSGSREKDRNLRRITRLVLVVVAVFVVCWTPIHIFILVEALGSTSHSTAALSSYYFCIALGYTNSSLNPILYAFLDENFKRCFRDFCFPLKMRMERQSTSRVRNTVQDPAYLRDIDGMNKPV

What is called inhibition is the change of the read-out against control, counted positive when it falls. For the compound `CCc1ccc(OCc2ccccc2C(=O)Nc2ccc3nc(C)cc(N)c3c2)cc1`, the inhibition in test [1] was 65.2%; in test [2], 58.1%; in [3], -2.98%; in test [4] it was 33.9%; in test [5], 39.1%; in [6], 72%. Also, the inhibition in [7] was 42.2%; in test [8] it was 46.5%; in test [9], 46.5%; in test [10], 8.05%; in test [11], 74.8%; in [12] it was 74.4%. The inhibition in test [13] was 11.9%; in test [14], 91.2%.
With `Clc1cccc(COc2cncc(N3CCNCC3)n2)c1`, the inhibition in test [1] is 85.7%; in test [2] it was 96%; in [3], -4.82%; in [4], 79.6%; in test [5], 11.8%; in [6], 28.3%. Besides, the inhibition is 33.7% in [7]; 97.9% in test [8]; 87.1% in [9]; 32.6% in test [10]; 99.5% in test [11]; 82% in test [12]. Moreover, the inhibition was 33.3% in [13] and 94.9% in [14].
On to `COC(=O)C1=C(C)NC(C)=C(C(=O)OCCCN2CCC(c3ccccc3)(c3ccccc3)CC2)[C@H]1c1cccc([N+](=O)[O-])c1`, for which the inhibition was 24.8% in test [1]; 53.5% in [2]; 94.1% in [3]; 81.8% in test [4]; 51.8% in test [5]; 95.6% in test [6]. Moreover, the inhibition in test [7] was 90.1%; in [8], 71.6%; in test [9] it was 84.6%; in test [10], 22.1%; in [11], 83.2%; in [12], 30.9%. For the same compound, the inhibition in test [13] was 40.4%; in [14], 58.1%.
